Source: publication PMC6335420, “The cell cycle regulator GpsB functions as cytosolic adaptor for multiple cell wall enzymes” (Nature Communications, 2019)
Like-named read-outs stand apart in the source and are kept apart here. Residues, ends and D or L forms follow the SMILES beside them. *: point of attachment. Fluorescein(5-Mal) = O=C1OC2(c3ccc(O)cc3Oc3cc(O)ccc32)c2ccc(N3C(=O)CC(*)C3=O)cc21; X1 = CN(C)c1ccc2c(-c3ccc(N4C(=O)CC(*)C4=O)cc3C(=O)[O-])c3ccc(=[N+](C)C)cc-3oc2c1

Assays:
BsGpsB1-68 [1] = target: T1, BsGpsB1-68 (Bacillus subtilis, UniProt P0CI74); type: binding; conditions: FP
T1 construct: His6 (N, cleaved yes); made in house; host or cells: E. coli BL21(DE3)
Source text: (§1) 75 the BsGpsB5-64:BsPBP11-17 complex.

BsGpsB1-68 [2] = target: T1, BsGpsB1-68; conditions: FP, compared with residue-16-labelled peptide; ref 3 (supplement); cited from earlier work
BsGpsB1-68Glu17Ala = target: T2, BsGpsB1-68Glu17Ala (Bacillus subtilis, UniProt P0CI74, E17A); test: Fluorescence polarisation binding to BsGpsB1-68Glu17Ala; conditions: FP, BsGpsB1-68Glu17Ala relative to wild-type BsGpsB1-68
T2 construct: Glu17Ala, Asp31Ala and Asp35Ala mutations were introduced to the BsGpsB1-68 expression construct plasmid; His6 (N, cleaved yes); made in house; host or cells: E. coli BL21(DE3)
Source text: as §1

BsGpsB1-68Tyr25Phe = target: T3, BsGpsB1-68Tyr25Phe (Bacillus subtilis, UniProt P0CI74, Y25F); test: Fluorescence polarisation binding to BsGpsB1-68Tyr25Phe; conditions: FP, BsGpsB Tyr25Phe relative to wild-type BsGpsB1-68
T3 construct: correspond to BsGpsB1-68^Asp31Ala and BsGpsB1-68^Tyr25Phe mutants, respectively; His6 (N, cleaved yes); made in house; host or cells: E. coli BL21(DE3)
Source text: as §1

BsGpsB1-68Asp31Ala = target: T4, BsGpsB1-68Asp31Ala (Bacillus subtilis, UniProt P0CI74, D31A); test: Fluorescence polarisation binding to BsGpsB1-68Asp31Ala; conditions: FP, BsGpsB Asp31Ala relative to wild-type BsGpsB1-68
T4 construct: Glu17Ala, Asp31Ala and Asp35Ala mutations were introduced to the BsGpsB1-68 expression construct plasmid; His6 (N, cleaved yes); made in house; host or cells: E. coli BL21(DE3)
Source text: as §1

BsGpsB1-68Asp35Ala = target: T5, BsGpsB1-68Asp35Ala (Bacillus subtilis, UniProt P0CI74, D35A); test: Fluorescence polarisation binding to BsGpsB1-68Asp35Ala; conditions: FP, BsGpsB1-68Asp35Ala relative to wild-type BsGpsB1-68
T5 construct: Glu17Ala, Asp31Ala and Asp35Ala mutations were introduced to the BsGpsB1-68 expression construct plasmid; His6 (N, cleaved yes); made in house; host or cells: E. coli BL21(DE3)
Source text: as §1

[3] = Circular dichroism of PBP peptides (helicity); type: physicochemical; conditions: CD, 222 nm, 4 °C, 20 mM sodium phosphate pH 7.3, 25 μM peptide
Protocol: CD spectra were recorded on a JASCO J-810 spectropolarimeter with a PTC-4235 Peltier temperature controller using 1 mm path length quartz cuvettes. For full wavelength scans a scan speed of 10 nm^−1min^−1 and a response time of 4 s were used, the final spectra were the average of at least four measurements. BsPBP1_1-32 CD spectra were recorded at 4 °C in a buffer of 20 mM sodium phosphate, pH 7.3 at a peptide concentration of 25 μM. Peptide helical contents were estimated from molar ellipticities at 222 nm using the equation helix = [θ]222 nm / (39,500(1–2.57/n))[78] where n is the number of residues in the peptide. LmPBPA1_1-15 CD spectra were analysed at 40 μM in 20 mM sodium phosphate buffer, pH 7.8, for samples containing 0, 40 and 60% trifluoroethanol (TFE). For samples containing 80% TFE, 5 mM sodium phosphate buffer, pH 7.8, was used. The CD spectra of BsGpsB1-68 proteins were measured at a concentration of 4.5 μM in a buffer of 20 mM sodium phosphate (pH 7.8) 150 mM NaCl. For thermal melt experiments, a response time of 8 s and scan rate of 1 °C^−1min^−1 were used. All thermal melts were reversible as CD spectra recorded before and after the melts in the wavelength range 200–240 nm could be superimposed.

BsGpsB1-68Lys32Glu = target: T6, BsGpsB1-68Lys32Glu (Bacillus subtilis, UniProt P0CI74, K32E); test: Fluorescence polarisation binding to BsGpsB1-68Lys32Glu; conditions: FP
T6 construct: His6 (N, cleaved yes); made in house; host or cells: E. coli BL21(DE3)
Source text: as §1

LmGpsB1-73 = target: T7, LmGpsB1-73 (Listeria monocytogenes serovar 1/2a, UniProt Q8Y614); test: Fluorescence polarisation binding to LmGpsB1-73; conditions: FP
T7 construct: made in house; host or cells: E. coli BL21(DE3)
Source text: as §1

L. monocytogenes [4] = test: L. monocytogenes fosfomycin susceptibility (filter disc); type: cell-based, Listeria monocytogenes EGD-e; conditions: halo around filter disc, BHI agar, 37 °C; pbpA1 R8A,R12A and Q10P mutants; triplicate
Protocol: Fosfomycin susceptibility was recorded using filter discs (Ø 6 mm) soaked with 10 µL of a 10 mg^−1mL^−1 fosfomycin solution. L. monocytogenes colonies, grown on BHI agar plates, were resuspended in BHI broth and used to swab-inoculate BHI agar plates. Filter discs soaked with fosfomycin were placed on top of the agar surface and the plates were incubated at 37 °C overnight. Diameter of growth inhibition zones was measured and corrected for the filter disc diameter. All experiments were performed three times and average values and standard deviations were calculated. Significance was determined using the t-test and differences were considered to be significant when P < 0.01.

L. monocytogenes [5] = conditions: 37 °C, vs wild-type L. monocytogenes; cited from earlier work
[6] = Peptidoglycan pulldown assay; type: binding, Bacillus subtilis; conditions: 25 µg protein + 66 µg PG in 100 µL PBS, room temperature 30 min, SDS-PAGE
Protocol: PG pulldown assays were carried out in PBS buffer. B. subtilis PG (SigmaAldrich) was prepared as a 10 mg^−1 mL^−1 stock solution in PBS containing 0.02% sodium azide. 25 µg of protein were added to a 100 µL sample containing 66 µg of PG and the mixture incubated with gentle agitation at room temperature for 30 min. The mixture was centrifuged at 16,000 × g for 7 min, the supernatant removed and the pellet resuspended in 1 mL of ice-cold PBS and immediately centrifuged for 2 min at 16,000 × g. The pellet was resuspended in 1 mL of the appropriate buffer and centrifuged for 2 min at 16,000 × g. Finally the pellet was boiled for 3 min in 60 μL SDS-PAGE loading buffer before analysis by SDS-PAGE; the SDS-PAGE loading buffer lacked reducing agents for YpbE130-240^Ser132Cys samples.

For `CSCC[C@H](NC(=O)[C@H](CO)NC(=O)CN)C(=O)N[C@@H](C)C(=O)N[C@@H](CC(=O)O)C(=O)N[C@@H](CCC(N)=O)C(=O)N[C@@H](Cc1ccccc1)C(=O)N[C@@H](CC(N)=O)C(=O)N[C@@H](CO)C(=O)N[C@@H](CCCNC(=N)N)C(=O)N[C@@H](CCC(=O)O)C(=O)N[C@@H](C)C(=O)N[C@@H](CCCNC(=N)N)C(=O)N[C@@H](CCCNC(=N)N)C(=O)N[C@@H](CCCCN)C(=O)N[C@@H](C)C(=O)N[C@@H](CC(N)=O)C(=O)N[C@@H](CO)C(=O)N[C@@H](CCCCN)C(=O)N[C@@H](CO)C(=O)N[C@@H](CO)C(=O)N1CCC[C@H]1C(=O)N[C@@H](CO)C(=O)N1CCC[C@H]1C(=O)N[C@@H](CCCCN)C(=O)N[C@@H](CCCCN)C(=O)NCC(=O)N[C@@H](CCCCN)C(=O)N[C@@H](CCCCN)C(=O)N[C@@H](CCCNC(=N)N)C(=O)N[C@@H](CCCCN)C(=O)N[C@@H](CCCCN)C(=O)N[C@@H](CSC1CC(=O)N(c2ccc3c(c2)C(=O)OC32c3ccc(O)cc3Oc3cc(O)ccc32)C1=O)C(=O)NCC(=O)O` (some centres unmarked) [Fluorescein-BsPBP11-32] (H-GSMADQFNSREARRKANSKSSPSPKKGKKRKKC(Fluorescein(5-Mal))G-OH; N-terminus and C-terminus assumed), the “binding to BsGpsB1-68 (in words)” value (BsGpsB1-68 [1]; listed as BsPBP1_1-32 peptide labelled with fluorescein at position 31) is listed as “the measured affinity was the same as if the fluorophore was at position 16”, the “binding to BsGpsB1-68 (in words)” value (BsGpsB1-68 [1]; listed as peptide labelled at the C-terminus with fluorescein) is listed as “same affinity as a peptide labelled” and the “affinity of residue-31-labelled peptide (in words)” value (BsGpsB1-68 [2]) is listed as “same affinity”.

For `CSCC[C@H](NC(=O)[C@H](CO)NC(=O)CN)C(=O)N[C@@H](C)C(=O)N[C@@H](CC(=O)O)C(=O)N[C@@H](CCC(N)=O)C(=O)N[C@@H](Cc1ccccc1)C(=O)N[C@@H](CC(N)=O)C(=O)N[C@@H](CO)C(=O)N[C@@H](CCCNC(=N)N)C(=O)N[C@@H](CCC(=O)O)C(=O)N[C@@H](C)C(=O)N[C@@H](CCCNC(=N)N)C(=O)N[C@@H](CCCNC(=N)N)C(=O)N[C@@H](CCCCN)C(=O)N[C@@H](C)C(=O)N[C@@H](CC(N)=O)C(=O)N[C@@H](CSC1CC(=O)N(c2ccc(-c3c4ccc(=[N+](C)C)cc-4oc4cc(N(C)C)ccc34)c(C(=O)[O-])c2)C1=O)C(=O)N[C@@H](CCCCN)C(=O)N[C@@H](CO)C(=O)N[C@@H](CO)C(=O)N1CCC[C@H]1C(=O)N[C@@H](CO)C(=O)N1CCC[C@H]1C(=O)N[C@@H](CCCCN)C(=O)N[C@@H](CCCCN)C(=O)NCC(=O)N[C@@H](CCCCN)C(=O)N[C@@H](CCCCN)C(=O)N[C@@H](CCCNC(=N)N)C(=O)N[C@@H](CCCCN)C(=O)N[C@@H](CCCCN)C(=O)NCC(=O)NCC(=O)O` (some centres unmarked) [TAMRA-BsPBP11-32] (H-GSMADQFNSREARRKANC(X1)KSSPSPKKGKKRKKGG-OH), the “reduction in affinity on GpsB mutation” value (BsGpsB1-68Glu17Ala) was “more than 8 fold”, the “reduction in affinity on GpsB mutation” value (BsGpsB1-68Tyr25Phe) was “more than 8 fold” and the “reduction in affinity on GpsB mutation” value (BsGpsB1-68Asp31Ala) was “more than 8 fold”. For the same molecule, the “reduction in affinity on GpsB mutation” value (BsGpsB1-68Asp35Ala) was “more than 8 fold”, the “helical residues corresponding to helical content” value [3] was ~ 5 residues and the α-helical content ([3]; average of at least four measurements) was 14%.

For `CSCC[C@H](NC(=O)[C@H](CO)NC(=O)CN)C(=O)N[C@@H](C)C(=O)N[C@@H](CC(=O)O)C(=O)N[C@@H](CCCCN)C(=O)N1CCC[C@H]1C(=O)N[C@@H](CCC(N)=O)C(=O)N[C@H](C(=O)N[C@@H](CCCNC(=N)N)C(=O)N[C@@H](CO)C(=O)N[C@@H](CCC(N)=O)C(=O)N[C@@H](Cc1ccc(O)cc1)C(=O)N[C@@H](CCCNC(=N)N)C(=O)N[C@@H](CC(N)=O)C(=O)N[C@@H](CCCCN)C(=O)N[C@@H](CCC(N)=O)C(=O)N[C@@H](CO)C(=O)NCC(=O)NCC(=O)N[C@@H](CSC1CC(=O)N(c2ccc3c(c2)C(=O)OC32c3ccc(O)cc3Oc3cc(O)ccc32)C1=O)C(=O)N[C@@H](CCCCN)C(=O)O)[C@@H](C)O` (some centres unmarked) [Fluorescein-LmPBPA11-20] (H-GSMADKPQTRSQYRNKQSGGC(Fluorescein(5-Mal))K-OH; N-terminus and C-terminus assumed), the “binding to BsGpsB1-68Lys32Glu (in words)” value (BsGpsB1-68Lys32Glu) was “almost identical” and the “binding to LmGpsB1-73 (in words)” value (LmGpsB1-73) was “affinity similar to that of BsPBPA1_1-32 for BsGpsB1-68”.

For `C[C@@H]1O[C@@H]1P(=O)(O)O` [fosfomycin], the fosfomycin sensitivity (L. monocytogenes [4]) is listed as “Effects on fosfomycin sensitivity were apparent in mutants carrying the pbpA1^Arg8Ala,Arg12Ala and pbpA1^Gln10Pro alleles but only when LmPBPA2, the LmPBPA1 paralogue, was also absent” and the “fosfomycin susceptibility of ΔgpsB mutants” value (L. monocytogenes [5]) is listed as “more susceptible”.

B1: BsYpbE130-240^Ser132Cys: disulphide cross-linked dimeric form of BsYpbE130-240 (protein, UniProt P50731 130-240, looked up, variant S132C)
chain: EDCKPKEQTAADKKQTAVAEKEDSPNKEEATAAAASSSQSTVQQQEQPAEPVQNVPNRVVKHTVQKKETLYRISMKYYKSRTGEEKIRAYNHLNGNDVYTGQVLDIPLMDE
modifications: disulphide-linked dimer
For B1, the binding to peptidoglycan [6] was “enhanced considerably relative to the monomeric, cysteine-free version”.
